Reference: patent publication USRE32098E (Research and Education Institute, Inc., priority 1978, dated 1986)
Counter-ions that a name gives are not always drawn. Like-named read-outs stand apart in the source and are kept apart here.

Key:
TBG [1] = target: T1, TBG (Homo sapiens, UniProt P05543); experiment: Displacement of radioactive T3 from TBG; type: binding
T1 construct: from tissue; host or cells: serum
T1 sequence (P05543 21-415): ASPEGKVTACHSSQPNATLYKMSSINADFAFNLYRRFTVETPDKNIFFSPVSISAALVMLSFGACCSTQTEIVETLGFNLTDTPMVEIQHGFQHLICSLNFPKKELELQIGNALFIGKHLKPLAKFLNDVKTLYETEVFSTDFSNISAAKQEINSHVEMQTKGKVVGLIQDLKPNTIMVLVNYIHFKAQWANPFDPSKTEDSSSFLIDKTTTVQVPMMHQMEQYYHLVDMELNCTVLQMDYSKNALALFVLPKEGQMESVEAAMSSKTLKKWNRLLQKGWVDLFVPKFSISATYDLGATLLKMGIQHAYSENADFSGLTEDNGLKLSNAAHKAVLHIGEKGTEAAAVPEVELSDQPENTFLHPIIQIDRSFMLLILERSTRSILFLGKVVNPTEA

[2] = target: T2, TBG (thyroxine-binding globulin) (Homo sapiens, UniProt P05543); experiment: Displacement of radioactive T4 from TBG in a CPBA system; set-up: AMOUNT T4 DISPLACED FROM TBG: unit not given here
T2 construct: from tissue; host or cells: human serum, diluted 1/32
T2 sequence (P05543 21-415): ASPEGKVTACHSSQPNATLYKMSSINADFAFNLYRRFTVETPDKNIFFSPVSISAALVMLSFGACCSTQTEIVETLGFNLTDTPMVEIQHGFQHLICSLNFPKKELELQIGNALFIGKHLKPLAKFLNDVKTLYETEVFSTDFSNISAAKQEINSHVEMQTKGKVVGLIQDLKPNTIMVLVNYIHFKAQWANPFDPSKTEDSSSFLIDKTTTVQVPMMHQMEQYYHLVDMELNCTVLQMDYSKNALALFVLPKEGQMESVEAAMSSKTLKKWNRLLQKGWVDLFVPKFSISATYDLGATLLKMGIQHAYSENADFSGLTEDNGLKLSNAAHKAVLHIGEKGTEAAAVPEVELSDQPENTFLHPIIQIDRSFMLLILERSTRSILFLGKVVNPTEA

TBG [3] = experiment: T4 RIA standard curves in barbital buffer and in presence of T4-free serum (FIG. 2); type: binding; details: 25 ul T4-free serum
Solubility at pH of RIA = type: physicochemical
sheep serum TBG = experiment: Adequacy of the amount of ANS in T3 RIA: T3-125I bound to T3-binding antibody in presence of sheep serum and ANS versus plain buffer; details: 200 ug ANS
[4] = tested on: T3-binding sites on the rabbit antiserum; experiment: Affinity for T3-binding sites on the rabbit antiserum
[5] = tested on: thyroxine binding prealbumin (TBPA); experiment: T4 binding by prealbumin
[6] = tested on: proteins such as thyroxine-binding globulin (TBG), prealbumin (TBPA) and albumin; details: normal human serum; cited from earlier work
TBG [7] = target: T1, TBG; experiment: Maximal T4-binding capacity of TBG in serum (method of Inada and Sterling); details: 7 euthyroid subjects with high serum TBG

For `CN(C)CCCN1c2ccccc2Sc2ccc(Cl)cc21` [Chlorpromazine HCl], the “AMOUNT T3 DISPLACED FROM TBG” value (TBG [1]) was 6.6 ng and the “AMOUNT T4 DISPLACED FROM TBG” value [2] was 5.6.

In the case of `O=S(=O)(O)c1cccc2cccc(Nc3ccccc3)c12` [ANS, 8-anilino-1-napthalene-sulfonic acid], the “blocking of TBG in serum” value (TBG [3]) is reported as “TBG in the serum was adequately blocked”, the “AMOUNT T3 DISPLACED FROM TBG” value (TBG [1]) is reported as 11.2 ng and the “T3 displaced from TBG” value (TBG [1]) is reported as 11.2 nanograms (ng). The “concentration of T3 in serum up to which all T3 may be displaced” value (TBG [1]) was at most 88 ug T3 per 100 ml, the “displacement of T3 bound to TBG” value (TBG [1]) was “displaces nearly all T3 bound to TBG” and the “prevention of binding of radioactive T3 to TBG” value (TBG [1]) was “prevents completely the binding of radioactive T3 to TBG”. The “solubility compared with Dilantin and tetrachlorthyronine” value (Solubility at pH of RIA) was “better solubility at pH of RIA”, the “neutralization of the inhibiting effect of sheep serum TBG” value (sheep serum TBG) was “almost complete neutralization” and the “radioactivity bound to antibody relative to that in plain buffer” value (sheep serum TBG; with sheep serum, no stable T3) was 95-98%. The “AMOUNT T4 DISPLACED FROM TBG” value [2] was 18, the “T4 displaced from TBG” value [2] was 18 nanograms (ng) and the “concentration of T4 in serum up to which all T4 is displaced” value [2] was at most 72 ug per 100 ml. The “affinity for T3-binding sites on the rabbit antiserum” value [4] was “negligible affinity” and the “effect on T4 binding by prealbumin” value [5] was “affected”.

In the case of `C[CH2][Hg][S]c1ccccc1C(=O)[O-].[Na+]` [Thimerosal], the “AMOUNT T3 DISPLACED FROM TBG” value (TBG [1]) is reported as 8.0 ng and the “AMOUNT T4 DISPLACED FROM TBG” value [2] is reported as 8.4.

In the case of `N[C@@H](Cc1cc(I)c(Oc2ccc(O)c(I)c2)c(I)c1)C(=O)O` [T3, triiodothyronine], the “present as unbound (dialyzable or free) hormone” value [6] is listed as 0.3%.

In the case of `O=S(=O)(O)c1ccc2cc(N=Nc3ccc(Nc4ccccc4)c4ccccc34)c(S(=O)(=O)O)cc2c1` [ANNDS, 3-(4-anilino-1-napthylazo) 2,7-napthalene disulfonic acid], the “AMOUNT T3 DISPLACED FROM TBG” value (TBG [1]; 10 ug blocking agent) is reported as 10.4 ng and the “AMOUNT T4 DISPLACED FROM TBG” value ([2]; 50 ug blocking agent) is reported as over 20.

With `CN1C(=O)CN=C(c2ccccc2)c2cc(Cl)ccc21` [Diazepam] the “AMOUNT T3 DISPLACED FROM TBG” value (TBG [1]) was 7.0 ng and the “AMOUNT T4 DISPLACED FROM TBG” value [2] was 6.3.

In the case of `CC(=O)NCCOC(=O)C(Oc1cccc(C(F)(F)F)c1)c1ccc(Cl)cc1` (centres unmarked) [Halofenate], the “AMOUNT T3 DISPLACED FROM TBG” value (TBG [1]; 10 ug blocking agent) is reported as 5.2 ng and the “AMOUNT T4 DISPLACED FROM TBG” value ([2]; 100 ug blocking agent) is reported as 8.4.

With `O=C([O-])c1ccccc1O.[Na+]` [Sodium Salicylate] the “AMOUNT T3 DISPLACED FROM TBG” value (TBG [1]) was 11.0 ng, the “AMOUNT T4 DISPLACED FROM TBG” value [2] was 6.1 and the “effect on T4 binding by prealbumin” value [5] was “affected”.

With `O=C1NC(=O)C(c2ccccc2)(c2ccccc2)N1` [Dilantin] the “AMOUNT T4 DISPLACED FROM TBG” value ([2]; 100 ug blocking agent) was 5.7.

With `O=S(=O)(O)c1cccc2ccccc12` [αNapthalene Sulfonic Acid] the “AMOUNT T3 DISPLACED FROM TBG” value (TBG [1]; 100 ug blocking agent) was 7.0 ng and the “AMOUNT T4 DISPLACED FROM TBG” value ([2]; 100 ug blocking agent) was 3.0.

For `CN1CCN(CCCN2c3ccccc3Sc3ccc(Cl)cc32)CC1` [Prochlorperazine], the “AMOUNT T3 DISPLACED FROM TBG” value (TBG [1]) was 7.0 ng and the “AMOUNT T4 DISPLACED FROM TBG” value [2] was 7.2.

With `O=C1NC(=S)NC1(c1ccccc1)c1ccccc1` [5,5 diphenyl-2 thiohydantoin] the “AMOUNT T3 DISPLACED FROM TBG” value (TBG [1]; 10 ug blocking agent) was 7.6 ng and the “AMOUNT T4 DISPLACED FROM TBG” value ([2]; 100 ug blocking agent) was 6.1.

With `CN(C)CCC=C1c2ccccc2COc2ccccc21` [Doxepin HCl] the “AMOUNT T3 DISPLACED FROM TBG” value (TBG [1]) was 10.8 ng and the “AMOUNT T4 DISPLACED FROM TBG” value [2] was 8.2.

B1: TBG: thyroxine-binding globulin, serum protein binding thyroid hormones (protein, UniProt P05543 21-415, looked up)
Thyroxine-binding globulin: ASPEGKVTACHSSQPNATLYKMSSINADFAFNLYRRFTVETPDKNIFFSPVSISAALVMLSFGACCSTQTEIVETLGFNLTDTPMVEIQHGFQHLICSLNFPKKELELQIGNALFIGKHLKPLAKFLNDVKTLYETEVFSTDFSNISAAKQEINSHVEMQTKGKVVGLIQDLKPNTIMVLVNYIHFKAQWANPFDPSKTEDSSSFLIDKTTTVQVPMMHQMEQYYHLVDMELNCTVLQMDYSKNALALFVLPKEGQMESVEAAMSSKTLKKWNRLLQKGWVDLFVPKFSISATYDLGATLLKMGIQHAYSENADFSGLTEDNGLKLSNAAHKAVLHIGEKGTEAAAVPEVELSDQPENTFLHPIIQIDRSFMLLILERSTRSILFLGKVVNPTEA
With B1 the “maximal T4-binding capacity of TBG (mean)” value (TBG [7]) was 46.9 ug per 100 ml.
